Tested on in the first data set: not listed separately
Nature of the data set: In vivo rat PK, brain exposures. To be noted: adult male rats, oral gavage in water, 5 mg/kg, 1 hr after dosing, read-out: Compound Concentration (ng/g rat brain) 1 hr. As for the experimental part: In vivo rat PK studies were performed using certain compounds provided herein. In one embodiment, a compound was dissolved in water and was administered to adult male rats (n=3 per time point) by oral gavage at a dose of 3 to 10 mg/kg. The plasma samples were collected and brain tissues were harvested at various time points after dosing, e.g., 15 min, 30 min, 1 hr, 2 hr, and 24 hr after dosing. The PK samples were analyzed; and the compound concentrations in these samples were quantified by LC/MS. The pKa values of the R^6 moiety of the compounds were calculated using ACD Lab (Version 12.01).
As for `N#Cc1ccc(-c2ccc3c(c2)CC2(CCN(C4CCC4)CC2)O3)cc1` [Compound 5, 4-(1′-Cyclobutyl-3H-spiro[benzofuran-2,4′-piperidine]-5-yl)benzonitrile], the concentration at 1 hr was 3100 ng/g.

Staying with this data set, now noted: adult male rats, oral gavage in water, 5 mg/kg, 24 hr after dosing, read-out: Compound Concentration (ng/g rat brain) 24 hr.
`N#Cc1ccc(-c2ccc3c(c2)CC2(CCN(C4CCC4)CC2)O3)cc1` [Compound 5, 4-(1′-Cyclobutyl-3H-spiro[benzofuran-2,4′-piperidine]-5-yl)benzonitrile]: the concentration at 24 hr amounted to 400 ng/g.

In a further data set the target is T1, human histamine H3 receptor (Homo sapiens, UniProt Q9Y5N1).
T1 construct: host or cells: cells expressing the human H3 receptor
T1 sequence (Q9Y5N1 whole entry): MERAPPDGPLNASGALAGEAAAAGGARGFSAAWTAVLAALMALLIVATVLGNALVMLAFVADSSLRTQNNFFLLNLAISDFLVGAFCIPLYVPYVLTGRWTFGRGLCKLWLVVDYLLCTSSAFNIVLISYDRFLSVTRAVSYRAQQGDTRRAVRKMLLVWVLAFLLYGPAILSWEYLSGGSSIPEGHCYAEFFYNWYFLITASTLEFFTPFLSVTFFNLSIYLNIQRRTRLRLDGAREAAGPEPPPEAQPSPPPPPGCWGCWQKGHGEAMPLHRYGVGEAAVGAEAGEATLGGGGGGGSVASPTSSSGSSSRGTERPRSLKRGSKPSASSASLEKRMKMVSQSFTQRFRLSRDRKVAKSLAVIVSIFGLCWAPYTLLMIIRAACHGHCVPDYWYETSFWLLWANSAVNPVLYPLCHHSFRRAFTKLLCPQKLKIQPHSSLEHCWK
Nature of the data set: H3 GTPγS assay (SPA method), histamine H3 in vitro assay. In kind it is biochemical. Conditions: GTPγ[35S] SPA, membranes of cells expressing human H3 receptor; in one embodiment HCl salts tested; read-out: Potency (functional potency as indicated by IC50). How it is done: H3 GTPγS assay (SPA method) was performed at EuroScreen (Belgium, ES-392-C) using conventional methods. Briefly, cells expressing the human histamine H3 receptor were homogenized in 15 mM Tris-HCl pH 7.5, 2 mM MgCl2, 0.3 mM EDTA, and 1 mM EGTA. Membranes were washed twice in the above tris buffer, collected by centrifugation (40,000×g, 25 min), and re-suspended in 75 mM Tris-HCl pH 7.5, 12.5 mM MgCl2, 0.3 mM EDTA, 1 mM EGTA, and 250 mM sucrose. Membranes were frozen in liquid nitrogen until use. On the day of the assay, membranes were thawed and diluted in assay buffer (20 mM HEPES pH 7.4, 100 mM NaCl, 10 μg/ml saponin, 1 mM MgCl2) to give 500 μg/ml and mixed (v/v) with GDP in assay buffer for a final GDP concentration of 10 μM and incubated on ice for at least 15 min. PVT-WGA beads (Amersham, RPNQ001) were diluted in assay buffer at 50 mg/mL and mixed with GTPγ[^35S] (Amersham, SJ1308) diluted in assay buffer to give ˜25,000 dpm/10 μL, and mixed vol/vol just before the start of the reaction. The reaction was started by adding 50 μL of test compound, 20 μL of the membranes:GDP mix, 10 μL of buffer, and 20 μL of the GTPγ[^35S]:beads mix in a 96 well plate Optiplate™ (PerkinElmer, 6005299) covered with topseal (TopCount™, PerkinElmer), mixed with an orbital shaker for 2 min, incubated for 1 hour at room temperature, centrifuged for 10 min at 2000 rpm, incubated for 1 h at room temperature, and counted for 1 min in a TopCount™ reader (PerkinElmer). Dose response curves and IC50 values (concentration to inhibit the reaction by 50%) were calculated by nonlinear regression using XLfit software (IDBS).
For antagonists testing, 10 μL of a reference agonist (R-γ-Me-Histamine) instead of 10 μL buffer was added at a concentration corresponding to the EC80 (30 nM). Control ligands were R-γ-Me-Histamine (Tocris, 0569), Imetit (Sigma, I-135), Thioperamide (Tocris, 0644), and Clobenpropit (Tocris, 0754) diluted in assay buffer.
The compounds provided herein were tested in the histamine H3 in vitro assay. In one embodiment, the respective HCl salts of the compounds provided herein were prepared using standard chemical procedures and tested in the histamine H3 in vitro assay.
Take `N#Cc1ccc(-c2ccc3c(c2)CC2(CCN(C4CCC4)CC2)O3)cc1` [Compound 5, 4-(1′-Cyclobutyl-3H-spiro[benzofuran-2,4′-piperidine]-5-yl)benzonitrile]: the IC50 (in general, the concentration at which inhibition is half-maximal) is at most 10 nM.
For `CN1CCC(N2CCC3(CC2)Cc2cc(Br)ccc2O3)CC1` [Compound 24, 5-Bromo-1′-(1-methylpiperidin-4-yl)-3H-spiro[benzofuran-2,4′-piperidine]], the IC50 was at most 1000 nM.
Still for that read-out and setting: the figure for `c1ccc2c(c1)CCN(Cc1ccc3c(c1)CC1(CCN4CCCCC4C1)O3)C2` (centres unmarked) [Compound 80, 5-((3,4-Dihydroisoquinolin-2(1H)-yl)methyl)-1′,3′,4′,6′,7′,8′,9′,9a′-octahydro-3H-spiro[benzofuran-2,2′-quinolizine]] is at most 10 nM; for `c1ccc2c(c1)CCN(Cc1ccc3c(c1)CC1(CCN4CCCC4C1)O3)C2` (centres unmarked) [Compound 93] it is at most 10 nM.
Still for that read-out and setting: the figure for `c1cnc(-c2ccc3c(c2)CC2(CCN(C4CCC4)CC2)O3)cn1` [Compound 29, 1′-Cyclobutyl-5-(pyrazin-2-yl)-3H-spiro[benzofuran-2,4′-piperidine]] is at most 10 nM; for `c1cc2c(cc1N1CCCCC1)OC1(CCCN(C3CCC3)CC1)C2` (centres unmarked) [Compound 71, 1-Cyclobutyl-6′-(piperidin-1-yl)-3′H-spiro[azepane-4,2′-benzofuran]] it is at most 100 nM; for `N#Cc1ccc(-c2ccc3c(c2)CC2(CCN4CCCCC4C2)O3)cc1` (centres unmarked) [Compound 75, 4-(-1′,3′,4′,6′,7′,8′,9′,9a′-Octahydro-3H-spiro[benzofuran-2,2′-quinolizin]-5-yl)benzonitrile] it is at most 10 nM.
On the same count and under the same terms, to `N#Cc1ccc(-c2ccc3c(c2)CC2(CCN(CC4CCC4)CC2)O3)cc1` [Compound 21, 4-(1′-(Cyclobutylmethyl)-3H-spiro[benzofuran-2,4′-piperidine]-5-yl)benzonitrile] belongs at most 1000 nM; to `c1cn2cc(-c3ccc4c(c3)CC3(CCN5CCCC5C3)O4)ccc2n1` (centres unmarked) [Compound 91, 5-(Imidazo[1,2-a]pyridin-6-yl)-2′,3′,5′,6′,8′,8a′-hexahydro-1′H,3H-spiro[benzofuran-2,7′-indolizine]], at most 10 nM.
Consider `c1cn2cc(-c3ccc4c(c3)CC3(CCN5CCCCC5C3)O4)ccc2n1` (centres unmarked) [Compound 76, 5-(Imidazo[1,2-a]pyridin-6-yl)-1′,3′,4′,6′,7′,8′,9′,9a′-octahydro-3H-spiro[benzofuran-2,2′-quinolizine]], for which the IC50 was at most 10 nM.
On the same count and under the same terms, to `c1cc2nc(-c3ccc4c(c3)CC3(CCN(C5CCC5)CC3)O4)cnc2[nH]1` [Compound 58, 1′-Cyclobutyl-5-(5H-pyrrolo[2,3-b]pyrazin-2-yl)-3H-spiro[benzofuran-2,4′-piperidine]] belongs at most 10 nM; to `Cn1cc2ccc(-c3ccc4c(c3)CC3(CCN(C5CCC5)CC3)O4)cc2n1` [Compound 66, 1′-Cyclobutyl-5-(2-methyl-2H-indazol-6-yl)-3H-spiro[benzofuran-2,4′-piperidine]], at most 10 nM; to `c1cc2c(cc1CN1CCCC1)OC1(CCN(C3CCC3)CC1)C2` [Compound 45, 1′-Cyclobutyl-6-(pyrrolidin-1-ylmethyl)-3H-spiro[benzofuran-2,4′-piperidine]], at most 100 nM.
Same read-out and setting: the figure for `CN1CCC(N2CCC3(CC2)Cc2cc(-c4ccc(CN)cc4)ccc2O3)CC1` [Compound 15, (4-(1′-(1-Methylpiperidin-4-yl)-3H-spiro[benzofuran-2,4′-piperidine]-5-yl)phenyl)methanamine] is at most 100 nM; for `Brc1ccc2c(c1)CC1(CCN3CCCCC3C1)O2` (single isomer, unassigned) [Compound 73, 5-Bromo-1′,3′,4′,6′,7′,8′,9′,9a′-octahydro-3H-spiro[benzofuran-2,2′-quinolizine]] it is at most 100 nM.
Still for that read-out and setting: the figure for `c1cc2c(cc1CN1CCOCC1)CC1(CCN3CCCCC3C1)O2` (centres unmarked) [Compound 78, 5-(Morpholinomethyl)-1′,3′,4′,6′,7′,8′,9′,9a′-octahydro-3H-spiro[benzofuran-2,2′-quinolizine]] is at most 10 nM; for `N#Cc1ccc(-c2ccc3c(c2)CC2(CCN4CCCCC4C2)O3)cc1` (centres unmarked) [Compound 74, 4-(-1′,3′,4′,6′,7′,8′,9′,9a′-Octahydro-3H-spiro[benzofuran-2,2′-quinolizin]-5-yl)benzonitrile] it is at most 10 nM.
Take `c1cc2ncc(-c3ccc4c(c3)CC3(CCN(C5CCC5)CC3)O4)cc2o1` [Compound 60, 1′-Cyclobutyl-5-(furo[3,2-b]pyridin-6-yl)-3H-spiro[benzofuran-2,4′-piperidine]]: the IC50 is at most 10 nM.
Still for that read-out and setting: the figure for “5-((3,4-Dihydroisoquinolin-2(1H)-yl)methyl)-1′,2′,3′,5′,6′,7′,9′,9a′-octahydro-3H-spiro[benzofuran-2,8′-pyrrolo[1,2-a]azepine] and 5-((3,4-dihydroisoquinolin-2(1H)-yl)methyl)-1′,2′,3′,5′,6′,8′,9′,9a′-octahydro-3H-spiro[benzofuran-2,7′-pyrrolo[1,2-a]azepine] [97/97a]” is at most 10 nM; for `c1cc2nc(-c3ccc4c(c3)CC3(CCN(C5CCC5)CC3)O4)ccc2[nH]1` [Compound 56, 1′-Cyclobutyl-5-(1H-pyrrolo[3,2-b]pyridin-5-yl)-3H-spiro[benzofuran-2,4′-piperidine]] it is at most 10 nM.
The same measure, in the same setting: to `c1cc2ncc(-c3ccc4c(c3)CC3(CCN(C5CCC5)CC3)O4)cc2[nH]1` [Compound 59, 1′-Cyclobutyl-5-(1H-pyrrolo[3,2-b]pyridin-6-yl)-3H-spiro[benzofuran-2,4′-piperidine]] belongs at most 10 nM.
On the same count and under the same terms, to `Brc1ccc2c(c1)CC1(CCN(C3CCC3)CC1)O2` [Compound 23, 5-Bromo-1′-cyclobutyl-3H-spiro[benzofuran-2,4′-piperidine]] belongs at most 1000 nM; to `N#Cc1ccc(-c2ccc3c(c2)CC2(CCN(C4CCCC4)CC2)O3)cc1` [Compound 17, 4-(1′-Cyclopentyl-3H-spiro[benzofuran-2,4′-piperidine]-5-yl)benzonitrile], at most 100 nM.
On to `Brc1ccc2c(c1)CC1(CCN3CCCCC3C1)O2` (single isomer, unassigned) [Compound 72, 5-Bromo-1′,3′,4′,6′,7′,8′,9′,9a′-octahydro-3H-spiro[benzofuran-2,2′-quinolizine]], for which the IC50 is at most 1000 nM.
On the same count and under the same terms, the figure for `c1cnc(-c2ccc3c(c2)OC2(CCN(C4CCC4)CC2)C3)cn1` [Compound 37, 1′-Cyclobutyl-6-(pyrazin-2-yl)-3H-spiro[benzofuran-2,4′-piperidine]] is at most 100 nM.
The same measure, in the same setting: the figure for `CC(=O)Nc1ccc(-c2ccc3c(c2)CC2(CCN(C4CCC4)CC2)O3)cc1` [Compound 6, N-(4-(1′-Cyclobutyl-3H-spiro[benzofuran-2,4′-piperidine]-5-yl)phenyl)acetamide] is at most 10 nM; for `CC(C1CCC1)N1CCC2(CC1)Cc1cc(-c3ccc(CN)cc3)ccc1O2` (centres unmarked) [Compound 16, (4-(1′-(1-Cyclobutylethyl)-3H-spiro[benzofuran-2,4′-piperidine]-5-yl)phenyl)methanamine] it is at most 10 nM; for `c1cc2c(cc1CN1CCOCC1)OC1(CCN(C3CCC3)CC1)C2` [Compound 44, 1′-Cyclobutyl-6-(morpholinomethyl)-3H-spiro[benzofuran-2,4′-piperidine]] it is at most 100 nM.
Turning to `COc1ccnc(-c2ccc3c(c2)CC2(CCN(C4CCC4)CC2)O3)n1` [Compound 28, 1′-Cyclobutyl-5-(4-methoxypyrimidin-2-yl)-3H-spiro[benzofuran-2,4′-piperidine]], the IC50 is at most 100 nM.

Still in this data set, the particulars now being: histamine H3 in vitro assay; read-out: IC50 values.
As to `c1ccc2c(c1)CC1(CCN(Cc3c[nH]cn3)CC1)O2` [Compound 3, 1′-((1H-Imidazol-4-yl)methyl)-3H-spiro [benzofuran-2,4′-piperidine]], the IC50 was above 1000 nM.

These data come from patent US20120077802A1 (SUNOVION PHARMACEUTICALS INC., priority 2009, published 2012).
